# Laboratory results as given in patent US10278964B2, “Medical treatments based on anamorelin” (HELSINN HEALTHCARE SA, priority 2014, dated 2019).
# Values joined by “and” are separate entries in the source; they are usually repeats but may differ in a detail not shown here. Equal values may be shown once. “Also recorded” adds a separate entry of the source.
# Tests used:
# healthy subjects [1] = details: cited from earlier work
# [2] = test system: patients with various cancers with cachexia; details: 50 mg once per day, cited from earlier work
# [3] = test system: patients with various cancers and cachexia; details: 50 mg once per day; cited from earlier work
# [4] = test system: patients with NSCLC-Cachexia; test: Romana 2: randomized, double-blind, placebo-controlled phase 3 study of anamorelin HCl; format: in vivo, human
# Source text: Example 2 Anamorelin HCL in the Treatment of Non-Small Cell Lung Cancer—Cachexia (NSCLC-C): A Randomized, Double-Blind, Placebo-Controlled, Multicenter, Phase III Study to Evaluate the Safety and Efficacy of Anamorelin Hcl in Patients with NSCLC-C(Romana 2)
# (§1) Key features of the Romana 2 study are as follows: • DESIGN: randomized, double-blind, placebo-controlled, multicenter, phase 3 study to evaluate the safety and efficacy of anamorelin HCl (anamorelin) in patients with NSCLC-Cachexia (59 sites; 15 countries) • PRIMARY ENDPOINT: Lean body mass (LBM) by DXA • SECONDARY ENDPOINTS: • Key: pooled overall survival, Anorexia/Cachexia sub-domain, Fatigue sub-domain, Simplified Evaluation of Appetite (SEA), and Simplified Evaluation of Fatigue (SEF) • Other: Body weight, study specific overall survival, FAACT/FACIT-F trial outcome index (TOI) and total scores, additional LBM analyses • EXPLORATORY ENDPOINTS: Hunger Assessment Scale (HAS), Karnofsky (KPS), responder analyses; Population pharmacokinetics (PK) in 90 patients • STUDY POPULATION: advanced NSCLC (unresectable Stage III or IV) and cachexia (≥5% body weight within 6 months or screening BMI<20 kg/m^2) • SAMPLE SIZE: 495 patients; randomization ratio 2:1 (anamorelin:placebo) • DOSING: placebo or 100 mg anamorelin for 12 weeks • SAFETY ASSESSMENTS: Adverse events (AEs), labs, vitals, ECGs
# healthy subjects [5] = details: 50 or 75 mg doses; after 6 days; cited from earlier work
# [6] = test system: patients with NSCLC-Cachexia; test: Romana 1: randomized, double-blind, placebo-controlled phase 3 study of anamorelin HCl; format: in vivo, human; details: for Fatigue Domain of FACIT-F, change from baseline, subgroup / Simplified Evaluation of Fatigue (SEF), change from baseline, subgroup: MITT
# Source text: Example 1 Anamorelin HCl in the Treatment of Non-Small Cell Lung Cancer—Cachexia (NSCLC-C): A Randomized, Double-Blind, Placebo-Controlled, Multicenter, Phase III Study to Evaluate the Safety and Efficacy of Anamorelin HCl in Patients with NSCLC-C(Romana 1)
# as §1, with “Romana 1” for “Romana 2”, “SIZE: 484” for “SIZE: 495”
# [7] = test system: patients with advanced non-small cell lung cancer (NSCLC); details: cited from earlier work
# [8] = test system: patients with cancer anorexia-cachexia syndrome; details: cited from earlier work
# [9] = test system: patients with advanced cancer and cachexia; details: after 4 weeks; cited from earlier work
# [10] = ITT population, 100 mg anamorelin for 12 weeks, LBM by DXA
# [11] = ITT population, over 12 weeks, 100 mg
# [12] = MITT population, over 12 weeks, 100 mg
# [13] = anamorelin treatment for 12 weeks
# [14] = MITT population, 12-week study period, anamorelin vs. placebo
compound,measurement,setting,value
CN(C)N(C)C(=O)[C@@]1(Cc2ccccc2)CCCN(C(=O)[C@@H](Cc2c[nH]c3ccccc23)NC(=O)C(C)(C)N)C1 [anamorelin],Body weight,healthy subjects [1]; 50 mg dose (single or split dose) and 75 mg dose,significant increases
same,GH levels,"healthy subjects [1]; all doses (25, 50, 75 mg)",significantly increased
same,IGF-1 levels,"healthy subjects [1]; all doses (25, 50, 75 mg)",significantly increased
same,ASAS scores,[2],improved
same,Fat mass decrease vs. placebo,[2],the difference did not reach statistical significance
same,Quality of life as measured by the FACIT-F test,[2],No significant effects
same,Scale weight measures,[2],no corresponding increase
same,Levels of IGF-1,"[2]; weeks 4, 8, and 12",significantly increased
same,Levels of IGFBP-3,"[2]; weeks 4, 8, and 12",significantly increased
same,Lean body mass compared to placebo,[2]; weeks 4 and 8,significantly increased
same,Total body mass compared to placebo,[2]; weeks 4 and 8,significantly increased
same,Appetite as measured by BACRI-7,[3],no significant difference
same,Body weight compared with placebo,[3],significantly increased
same,Enjoyment from eating (BACRI-7),[3],significantly more patients reported greater enjoyment from eating
same,FACIT-F scores,[3],significantly increased
same,Food intake,[3],increased but not significantly
same,GH levels,[3],significantly increased
same,IGF-1 levels,[3],significantly increased
same,IGFBP-3 levels,[3],significantly increased
same,Patient-reported appetite as measured by ASAS,[3],significantly improved
same,"Lean Body Mass, median change from baseline over 12 weeks",[4]; [10],0.75
same,"Lean Body Mass, median treatment difference (anamorelin vs. placebo)",[4]; [11],1.71
same,FAACT TOI and total score (cachexia concerns),[4]; MITT population,trending benefit
same,FACIT-F TOI and total score,[4]; MITT population,No benefit
same,SEF score vs. placebo,"[4]; MITT population, 12-week study period",overall small trend of improvement; also recorded: not statistically different from placebo
same,"Anorexia/Cachexia Domain, Treatment Difference (anamorelin vs. placebo), LS Mean (SE)",[4]; [12],2.14 (0.676)
same,"Body Weight, Treatment Difference (anamorelin vs. placebo), LS Mean (SE)",[4]; [12],1.53 (0.327) kg
same,"Body Weight, overall change from baseline, LS Mean (SE)",[4]; [12],0.95 (0.386) kg
same,"FAACT Anorexia/Cachexia Domain, change from baseline, LS Mean (SE)",[4]; [12],3.48 (0.944)
same,"SEA Score, Treatment Difference (anamorelin vs. placebo), LS Mean (SE)",[4]; [12],0.66 (0.283)
same,"SEA Score, change from baseline, LS Mean (SE)",[4]; [12],1.08 (0.400)
same,"FACIT-F fatigue score, subgroup","[4]; MITT, BMI less than or equal to 18.5",maintained a steady score after Week 3
same,"FACIT-F fatigue score, subgroup","[4]; MITT, ECOG of 2",general trend of improvement
same,"SEF score, subgroups","[4]; MITT, concomitant opioid use and BMI≤18.5",Specific improvements
same,"FACIT-F fatigue score, subgroup","[4]; MITT, concomitantly taking opioids, after Week 3",did not experience as severe of a decline in score as those in the placebo group
same,"FACIT-F fatigue score, subgroup","[4]; MITT, patients under the age of 65, after Week 3",did not experience as severe of a decline in score as those in the placebo group
same,Tolerability,[4]; [13],well tolerated
same,Concerns related to weight and body image (FAACT),[4]; in vivo,an improvement
same,Percentage of change in LBM,[4]; in vivo,consistent increases
same,"Symptoms of early satiety and appetite (individual FAACT questions), change from baseline over time",[4]; in vivo,showed an improvement
same,Body weight gain versus placebo,healthy subjects [5],significant dose-related weight gain
same,"Lean Body Mass, median change from baseline over 12 weeks",[6]; [10],1.10 kg
same,"Lean Body Mass, median treatment difference (anamorelin vs. placebo)",[6]; [11],1.54 kg
same,"FAACT TOI, overall treatment difference",[6]; [14],2.86±1.161
same,"FAACT Total, overall treatment difference",[6]; [14],2.67±1.459
same,"FACIT TOI, overall treatment difference",[6]; [14],1.90±1.358
same,"FACIT Total, overall treatment difference",[6]; [14],2.07±1.651
same,"Anorexia/Cachexia Domain, Treatment Difference (anamorelin vs. placebo), LS Mean (SE)",[6]; [12],2.21 (0.617)
same,"Body Weight, Treatment Difference (anamorelin vs. placebo), LS Mean (SE)",[6]; [12],2.07 (0.325) kg
same,"Body Weight, overall change from baseline, LS Mean (SE)",[6]; [12],2.20±0.3 kg and 2.20 (0.326) kg
same,"FACIT-F Fatigue Domain, change from baseline, LS Mean (SE)",[6]; [12],0.26 (0.886)
same,"SEA Score, Treatment Difference (anamorelin vs. placebo), LS Mean (SE)",[6]; [12],0.65 (0.262)
same,"SEA Score, change from baseline, LS Mean (SE)",[6]; [12],1.57 (0.317)
same,"SEF Score, Treatment Difference (anamorelin vs. placebo), LS Mean (SE)",[6]; [12],0.33 (0.265)
same,"SEF Score, change from baseline, LS Mean (SE)",[6]; [12],0.11 (0.309)
same,"Fatigue Domain of FACIT-F, change from baseline, subgroup","[6]; BMI>18.5, Week 3 to 12",smaller improvement trend
same,"Simplified Evaluation of Fatigue (SEF), change from baseline, subgroup",[6]; BMI≤18.5 (statistically significant at Week 3 and 6),improvement trend over 12 Weeks
same,"Fatigue Domain of FACIT-F, change from baseline, subgroup","[6]; ECOG 0-1, Week 3, 6, 9 to 12",gap increase between placebo and anamorelin
same,"Fatigue Domain of FACIT-F, change from baseline, subgroup","[6]; aged 65 years and younger, concomitant opioid use, ECOG 2 (Weeks 9 and 12), BMI≤18.5",statistically significant improvement
same,"Simplified Evaluation of Fatigue (SEF), change from baseline, subgroup",[6]; concomitant opioid use,small trend of improvement
same,"Fatigue Domain of FACIT-F, change from baseline, subgroup","[6]; males, Week 3 to 6 (statistically significant at Week 9)",general improvement trend
same,"Fatigue Domain of FACIT-F, change from baseline, subgroup",[6]; no-concomitant opioid use,smaller overall improvement trend
same,Tolerability,[6]; [13],well tolerated
same,Percentage change from baseline in LBM,[6]; throughout the 12-week study,consistent improvement
same,"FACIT-F score (fatigue), change from baseline","[6]; week 9, 100 mg",0.33±0.9
same,"FACIT-F score (fatigue), change from baseline","[6]; week 12, 100 mg",0.48±1.0
same,Average weight gain from baseline to week 12,[7]; 100 mg once daily,statistically significant average weight gain
same,IGFBP-3 as compared to placebo,[7]; 50 or 100 mg once daily,statistically significant increases
same,MD Anderson Symptom Inventory (MDASI) scores,[7]; 50 or 100 mg once daily,the improvement was not significant
CC(=O)O[C@]1(C(C)=O)CC[C@H]2[C@@H]3C=C(C)C4=CC(=O)CC[C@]4(C)[C@H]3CC[C@@]21C [megestrol acetate],Quality of life in cancer cachexia patients,"[8]; 13 of 14 studies no significant difference vs placebo, dronabinol, eicosapentaenoic acid or glucocorticosteroids",has not been shown to improve
same,Body weight and water,"[8]; human, in vivo",only been shown to increase body weight and water
same,Fat mass or lean body mass,"[8]; human, in vivo",does not improve
COc1ccc2[nH]cc(CCNC(C)=O)c2c1 [melatonin],"Weight, body composition (including fat-free mass), symptom scores, quality-of-life outcomes (FACIT-F and FAACT) vs placebo",[9],No differences
